Calls of active or inactive are those of the source.
What was measured:
Aspartyl aminopeptidase = target: T1, Aspartyl aminopeptidase (Plasmodium falciparum 3D7, UniProt Q8I2J3)
T1 sequence (Q8I2J3 whole entry): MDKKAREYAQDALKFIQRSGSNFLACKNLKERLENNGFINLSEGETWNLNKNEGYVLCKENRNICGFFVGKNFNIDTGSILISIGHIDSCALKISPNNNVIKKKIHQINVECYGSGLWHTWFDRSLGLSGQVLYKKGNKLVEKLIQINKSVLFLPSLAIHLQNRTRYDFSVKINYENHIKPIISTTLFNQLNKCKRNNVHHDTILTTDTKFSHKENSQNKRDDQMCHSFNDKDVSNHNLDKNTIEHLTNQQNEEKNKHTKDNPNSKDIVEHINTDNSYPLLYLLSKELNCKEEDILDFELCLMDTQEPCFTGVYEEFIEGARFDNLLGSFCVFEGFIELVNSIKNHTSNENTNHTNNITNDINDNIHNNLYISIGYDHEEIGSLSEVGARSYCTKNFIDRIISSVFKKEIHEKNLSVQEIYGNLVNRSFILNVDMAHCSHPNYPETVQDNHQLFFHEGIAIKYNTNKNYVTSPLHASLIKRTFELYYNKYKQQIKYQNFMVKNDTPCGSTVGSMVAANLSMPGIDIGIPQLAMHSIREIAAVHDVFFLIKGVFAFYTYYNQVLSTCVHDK

Procathepsin L = Procathepsin L (Homo sapiens, UniProt P07711)
[1] = target: T2, Mannose-6-phosphate isomerase (Homo sapiens, UniProt P34949); assay: MPI inhibition at elevated mannose 6-phosphate – biochemical, fluorescence intensity, high mannose 6-phosphate, primary screen (AID 1220)
T2 sequence (P34949 whole entry): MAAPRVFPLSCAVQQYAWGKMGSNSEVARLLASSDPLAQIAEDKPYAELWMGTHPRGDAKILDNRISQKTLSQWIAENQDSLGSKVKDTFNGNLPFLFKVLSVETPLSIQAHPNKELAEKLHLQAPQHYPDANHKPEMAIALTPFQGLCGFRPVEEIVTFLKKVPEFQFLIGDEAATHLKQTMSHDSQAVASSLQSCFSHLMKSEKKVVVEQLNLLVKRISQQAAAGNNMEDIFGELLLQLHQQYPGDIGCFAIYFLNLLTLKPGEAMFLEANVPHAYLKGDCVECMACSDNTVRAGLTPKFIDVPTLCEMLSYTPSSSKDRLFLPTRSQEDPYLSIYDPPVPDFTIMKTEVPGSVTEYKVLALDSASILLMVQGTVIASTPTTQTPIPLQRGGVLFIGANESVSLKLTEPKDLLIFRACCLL

[2] = target: Glucose-6-phosphate 1-dehydrogenase (Homo sapiens, UniProt P11413); assay: inhibition of Homo sapiens G6PD, dose series – biochemical, fluorescence, selectivity assay for P. falciparum G6PD inhibitor project, dose response (AID 504792); format: functional
Aminopeptidase N = target: T3, Aminopeptidase N (Plasmodium falciparum FcB1/Columbia, UniProt O96935); assay: malaria alanyl aminopeptidase activity blockers – biochemical, fluorogenic H-Leu-NHMec substrate, 1536-well (AID 1445); design: species or system Plasmodium falciparum 3D7, 3D7
T3 sequence (O96935 whole entry): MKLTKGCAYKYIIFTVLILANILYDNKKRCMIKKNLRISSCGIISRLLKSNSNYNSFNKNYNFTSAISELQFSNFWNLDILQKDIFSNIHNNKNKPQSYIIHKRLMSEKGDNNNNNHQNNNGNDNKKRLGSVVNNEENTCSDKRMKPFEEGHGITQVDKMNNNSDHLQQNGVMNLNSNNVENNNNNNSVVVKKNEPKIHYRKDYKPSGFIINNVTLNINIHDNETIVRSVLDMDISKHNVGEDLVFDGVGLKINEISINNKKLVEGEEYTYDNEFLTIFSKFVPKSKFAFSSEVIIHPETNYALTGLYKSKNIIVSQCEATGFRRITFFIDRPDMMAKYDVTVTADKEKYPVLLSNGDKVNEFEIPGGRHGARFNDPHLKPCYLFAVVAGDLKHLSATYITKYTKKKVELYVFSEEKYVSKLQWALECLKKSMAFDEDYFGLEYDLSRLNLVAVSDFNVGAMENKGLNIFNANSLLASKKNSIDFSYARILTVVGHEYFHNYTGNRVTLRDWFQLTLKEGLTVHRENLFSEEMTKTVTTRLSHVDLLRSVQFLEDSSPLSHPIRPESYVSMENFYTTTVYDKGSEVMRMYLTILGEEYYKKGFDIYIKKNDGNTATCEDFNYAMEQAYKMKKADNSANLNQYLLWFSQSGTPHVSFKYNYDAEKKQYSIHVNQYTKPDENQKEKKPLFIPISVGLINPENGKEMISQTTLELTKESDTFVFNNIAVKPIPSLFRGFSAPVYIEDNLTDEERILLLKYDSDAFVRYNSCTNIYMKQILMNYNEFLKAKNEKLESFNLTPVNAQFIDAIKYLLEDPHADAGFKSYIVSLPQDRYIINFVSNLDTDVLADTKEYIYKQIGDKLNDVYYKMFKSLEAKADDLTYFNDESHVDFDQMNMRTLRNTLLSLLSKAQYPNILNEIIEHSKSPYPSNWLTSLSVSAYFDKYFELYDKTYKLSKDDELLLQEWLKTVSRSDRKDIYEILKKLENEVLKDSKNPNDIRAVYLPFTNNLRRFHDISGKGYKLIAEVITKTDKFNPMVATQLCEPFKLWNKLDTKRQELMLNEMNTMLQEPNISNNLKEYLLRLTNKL

[3] = luciferase reporter signal reduction – luminescence, H4-C neuroglioblastoma cells, dose response (AID 2458); format: functional, cell-based;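 also: H4 neuroglioblastoma cells stably carrying a luciferase reporter gene fusion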
BJ [4] = assay: BJ-TERT fibroblast viability loss – cell-based, RAS-independent, luminescence, dose response (AID 1933); format: functional; details: Homo sapiens
cells = format: functional, cell-based
[5] = alpha-synuclein stem-loop luciferase translation blockers – H4 neuroglioma cells, luminescence, confirmation (AID 1988); format: functional, cell-based
BJ [6] = assay: cells; format: functional, cell-based; details: Homo sapiens
BJ [7] = assay: BJ-TERT-LT-ST fibroblast viability loss – cell-based, RAS-independent, luminescence, dose response (AID 1935); format: functional; details: Homo sapiens;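 also: BJ fibroblasts immortalized with TERT plus LT and ST oncogenes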
[8] = DRD fibroblast viability loss – cell-based, non-viral oncogenic, luminescence, dose response (AID 1934); format: functional; details: Homo sapiens
[9] = alpha-synuclein stem-loop translation blockers – luminescence, H4 neuroglioblastoma cells, dose confirmation, confirmation (AID 2454); format: functional, cell-based;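 also: H4 neuroglioblastoma cells carrying an alpha-synuclein 5'UTR luciferase reporter; potency for inhibition of the luciferase signal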
Leucine aminopeptidase = target: T4, Leucine aminopeptidase (Plasmodium falciparum 3D7, UniProt Q8IL11); assay: P. falciparum M17LAP inhibitors, primary screen, biochemical, fluorogenic H-Leu-NHMec substrate, 1536-well (AID 1619); format: functional
T4 sequence (Q8IL11 whole entry): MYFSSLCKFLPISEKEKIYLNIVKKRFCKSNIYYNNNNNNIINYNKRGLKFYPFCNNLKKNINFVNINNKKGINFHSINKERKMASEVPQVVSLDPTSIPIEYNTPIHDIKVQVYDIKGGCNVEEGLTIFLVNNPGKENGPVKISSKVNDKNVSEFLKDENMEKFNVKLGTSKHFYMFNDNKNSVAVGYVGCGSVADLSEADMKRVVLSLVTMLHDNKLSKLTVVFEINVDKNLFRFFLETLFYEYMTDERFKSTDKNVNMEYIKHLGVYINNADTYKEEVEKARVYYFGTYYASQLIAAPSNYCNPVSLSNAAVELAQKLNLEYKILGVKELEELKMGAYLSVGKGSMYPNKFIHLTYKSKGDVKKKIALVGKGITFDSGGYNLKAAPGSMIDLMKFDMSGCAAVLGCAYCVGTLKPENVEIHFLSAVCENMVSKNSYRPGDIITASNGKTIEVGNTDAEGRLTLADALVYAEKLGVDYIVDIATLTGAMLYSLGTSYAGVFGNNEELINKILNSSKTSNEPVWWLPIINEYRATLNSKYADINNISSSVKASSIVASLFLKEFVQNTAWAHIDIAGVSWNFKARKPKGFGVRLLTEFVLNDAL

Large T antigen = Large T antigen (Simian virus 40, UniProt P03070); format: functional, Betapolyomavirus macacae;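 also: Confirmatory-stage PubChem screen for compounds that inhibit SV40 T antigen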
[10] = NIH-3T3 fibroblast cytotoxicity, dose response, cytotoxicity control, cell-based, fluorescence, Alamar Blue, secondary assay (AID 2327); format: functional;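 also: NIH-3T3 mouse fibroblasts cultured with fluconazole at 8 µg/mL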
[11] = fluconazole-exposed Candida albicans growth modulators – fluorescence, retest, confirmation (AID 2467); format: functional, cell-based
[12] = target: T5, Histone-lysine N-methyltransferase NSD2 (Homo sapiens, UniProt O96028); format: biochemical
T5 sequence (O96028 whole entry): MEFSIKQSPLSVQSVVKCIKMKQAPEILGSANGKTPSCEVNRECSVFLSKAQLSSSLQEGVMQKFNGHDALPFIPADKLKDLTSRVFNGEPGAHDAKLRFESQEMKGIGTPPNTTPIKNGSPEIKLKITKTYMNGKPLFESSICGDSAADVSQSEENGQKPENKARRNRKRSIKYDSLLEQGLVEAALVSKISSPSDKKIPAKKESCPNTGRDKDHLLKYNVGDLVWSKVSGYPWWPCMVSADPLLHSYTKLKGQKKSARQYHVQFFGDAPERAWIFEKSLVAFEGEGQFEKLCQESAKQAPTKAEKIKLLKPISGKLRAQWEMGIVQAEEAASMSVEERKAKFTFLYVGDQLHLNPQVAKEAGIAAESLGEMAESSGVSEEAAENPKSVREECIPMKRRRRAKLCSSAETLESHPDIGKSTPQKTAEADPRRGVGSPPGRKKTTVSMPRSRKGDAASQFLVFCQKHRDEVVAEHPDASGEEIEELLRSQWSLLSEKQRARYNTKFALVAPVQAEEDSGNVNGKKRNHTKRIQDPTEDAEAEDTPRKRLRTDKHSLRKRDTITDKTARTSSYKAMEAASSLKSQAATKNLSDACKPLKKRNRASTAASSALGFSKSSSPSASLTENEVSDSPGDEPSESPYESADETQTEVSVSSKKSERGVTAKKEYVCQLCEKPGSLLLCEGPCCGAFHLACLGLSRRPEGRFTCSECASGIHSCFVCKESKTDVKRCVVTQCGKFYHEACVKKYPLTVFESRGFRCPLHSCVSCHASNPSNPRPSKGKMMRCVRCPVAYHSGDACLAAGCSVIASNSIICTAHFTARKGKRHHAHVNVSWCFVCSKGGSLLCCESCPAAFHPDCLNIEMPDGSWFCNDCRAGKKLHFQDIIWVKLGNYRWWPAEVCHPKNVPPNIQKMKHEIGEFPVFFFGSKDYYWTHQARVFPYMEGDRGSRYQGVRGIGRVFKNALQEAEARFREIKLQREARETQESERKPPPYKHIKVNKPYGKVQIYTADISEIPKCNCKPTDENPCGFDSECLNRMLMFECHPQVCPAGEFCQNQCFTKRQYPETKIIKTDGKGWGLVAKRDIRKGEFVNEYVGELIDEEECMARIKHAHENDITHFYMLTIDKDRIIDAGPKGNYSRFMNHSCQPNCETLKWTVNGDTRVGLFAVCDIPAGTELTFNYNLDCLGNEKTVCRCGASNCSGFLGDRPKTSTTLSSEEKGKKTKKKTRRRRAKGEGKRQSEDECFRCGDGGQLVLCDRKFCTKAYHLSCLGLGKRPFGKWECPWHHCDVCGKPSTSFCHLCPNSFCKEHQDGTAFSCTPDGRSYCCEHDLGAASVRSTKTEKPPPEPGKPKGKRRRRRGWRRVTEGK

Procathepsin L, sequence (P07711 whole entry): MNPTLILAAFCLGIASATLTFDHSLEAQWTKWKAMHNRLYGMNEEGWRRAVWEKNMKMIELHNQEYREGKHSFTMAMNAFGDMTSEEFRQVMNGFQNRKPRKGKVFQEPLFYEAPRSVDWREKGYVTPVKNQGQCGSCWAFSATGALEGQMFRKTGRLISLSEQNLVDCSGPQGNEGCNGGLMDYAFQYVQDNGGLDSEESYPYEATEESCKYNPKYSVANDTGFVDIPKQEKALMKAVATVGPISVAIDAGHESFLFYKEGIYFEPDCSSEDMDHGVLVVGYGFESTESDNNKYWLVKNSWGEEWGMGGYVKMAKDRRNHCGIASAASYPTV
Glucose-6-phosphate 1-dehydrogenase, sequence (P11413 whole entry): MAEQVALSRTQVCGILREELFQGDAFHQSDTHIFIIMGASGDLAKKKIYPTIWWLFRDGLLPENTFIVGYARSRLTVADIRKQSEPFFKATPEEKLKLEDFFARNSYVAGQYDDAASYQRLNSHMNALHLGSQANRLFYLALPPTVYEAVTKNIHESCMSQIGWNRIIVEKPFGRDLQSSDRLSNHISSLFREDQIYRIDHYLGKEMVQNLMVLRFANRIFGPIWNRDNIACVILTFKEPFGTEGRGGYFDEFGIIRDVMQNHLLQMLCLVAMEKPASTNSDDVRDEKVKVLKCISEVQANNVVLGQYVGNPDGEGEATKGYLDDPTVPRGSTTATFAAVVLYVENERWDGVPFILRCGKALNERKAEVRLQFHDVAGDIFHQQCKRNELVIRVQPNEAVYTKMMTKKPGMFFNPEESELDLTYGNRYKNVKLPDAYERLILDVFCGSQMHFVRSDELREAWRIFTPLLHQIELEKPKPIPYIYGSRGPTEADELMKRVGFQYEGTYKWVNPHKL
Large T antigen, sequence (P03070 whole entry): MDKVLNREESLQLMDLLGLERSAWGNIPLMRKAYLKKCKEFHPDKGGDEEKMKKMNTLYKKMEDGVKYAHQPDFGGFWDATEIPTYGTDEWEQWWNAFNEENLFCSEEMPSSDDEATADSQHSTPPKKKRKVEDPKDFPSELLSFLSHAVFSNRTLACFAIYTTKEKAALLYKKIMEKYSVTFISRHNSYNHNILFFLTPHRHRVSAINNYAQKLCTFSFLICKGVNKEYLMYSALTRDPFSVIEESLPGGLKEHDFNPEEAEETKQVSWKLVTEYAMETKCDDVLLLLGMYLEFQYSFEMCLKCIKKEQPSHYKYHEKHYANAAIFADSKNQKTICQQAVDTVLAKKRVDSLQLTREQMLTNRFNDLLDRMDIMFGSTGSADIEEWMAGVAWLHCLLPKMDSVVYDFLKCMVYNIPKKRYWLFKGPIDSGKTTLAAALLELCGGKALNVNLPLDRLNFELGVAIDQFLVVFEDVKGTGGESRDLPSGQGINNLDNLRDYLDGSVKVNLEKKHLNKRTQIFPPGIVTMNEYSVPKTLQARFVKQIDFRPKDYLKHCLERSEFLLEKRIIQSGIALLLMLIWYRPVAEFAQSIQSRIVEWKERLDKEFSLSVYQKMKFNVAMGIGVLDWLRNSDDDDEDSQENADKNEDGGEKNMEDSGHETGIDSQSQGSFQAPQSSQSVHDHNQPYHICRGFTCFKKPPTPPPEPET

With `C[C@]12CC[C@@H]3c4ccc(O)c(O)c4CC[C@H]3[C@@H]1CC[C@@H]2O` as the compound, how does the IC50 (Aspartyl aminopeptidase) read?
The IC50 was 1.22 µM (active).

What about the IC50 (Procathepsin L) of the same compound?
The IC50 was > 59.6 µM (not active).

And the IC50 [1]?
The IC50 was 29 µM (active).

What about the IC50 [2] of the same compound?
The IC50 was 29.1 µM (inactive).

Which results are given for `COc1cc([N+](=O)[O-])ccc1NC(=O)Nn1cnnc1`?
IC50 (Aspartyl aminopeptidase): 0.353 µM (active); IC50 (Procathepsin L): > 59.6 µM (not active)

For `CCOc1cc(/C=C2\N=C(SC)SC2=O)cc([N+](=O)[O-])c1OC(C)=O`, which IC50 (Aminopeptidase N) is on record?
The IC50 was 26.5 µM (active).

What does the source list for `COC(=O)c1ccc(C)c(NS(=O)(=O)c2ccc(OC)cc2)c1`?
EC50 [3]: > 12 µM (not active); EC50 (BJ [4]): 0.689 µM (inconclusive); EC50 (cells): 1.02 µM (active); EC50 [5]: < 0.1 µM (active); EC50 (BJ [6]): 1.61 µM (active); EC50 (BJ [7]): 0.353 µM (inconclusive); EC50 [8]: 0.682 µM (active); EC50 [9]: 0.834 µM (active)

What does the source list for `COc1cc(/C=C2\SC(=S)N(NS(=O)(=O)c3ccc(C)cc3)C2=O)ccc1O`?
IC50 (Leucine aminopeptidase): 27.1 µM (active); IC50 (Aminopeptidase N): 19.2 µM (active); IC50 (Large T antigen): 10.1 µM (active)

For `COc1cccc2c(SCC(=O)N/N=C/c3ccc(O)c(O)c3)cc(C)nc12`, which EC50 [10] is on record?
The EC50 was 26.3 µM (active).

What about the IC50 (Leucine aminopeptidase) of the same compound?
Its IC50 is 16.2 µM (active).

What about the IC50 (Aspartyl aminopeptidase) of the same compound?
The IC50 was 2.01 µM (active).

What about the IC50 (Procathepsin L) of the same compound?
The IC50 was > 59.6 µM (not active).

What about the EC50 [11] of the same compound?
The EC50 was > 38 µM (not active).

And the AC50 [12]?
The AC50 was 10.4 µM (active).

From ChEMBL document CHEMBL1201862, “PubChem BioAssay data set” (2004)
